The numbers were not newly measured in patent US10376473B2, “Transdermal adhesive compositions, devices, and methods” (priority 2010, dated 2019), which cites them from elsewhere.

Molecules are shown by their SMILES. Like-named read-outs stand apart in the source and are kept apart here.

For this data set the following is noted: after 2 months at 60° C.

On to `CCN(C)C(=O)Oc1cccc([C@H](C)N(C)C)c1` [(S)—N-ethyl-3-[(1-dimethylamino)ethyl]-N-methylphenyl carbamate], for which the degradation products is on record as 1.3% (composition with 0.1% tocopherol (antioxidant)) and 4.46% (composition without the antioxidant).
